The record followed here is patent US20150119317A1, “ORAL SOLID DOSAGE FORMULATION OF 1,1-DIMETHYLETHYL [(1S)-1-CARBAMOYL)PYRROLIDIN-1-YL]CARBONYL}-2,2-DIMETHYLPROPYL]CARBAMATE” (BRISTOL-MYERS SQUIBB COMPANY, priority 2012, published 2015).

This data set can be described thus: Bioequivalence study: PK of wet and dry granulated tablets in a dog model. In kind it is in vivo. The conditions noted are these: fed state with 50 ml high-fat meal substitute. The procedure:
A study was conducted to compare conventional tablet dosage forms. The goal of the study was to assess the in vivo performance of various prototypes of conventional tablet dosage forms (wet and dry granulated tablets) in a dog model.
The following five formulations were tested: […]
1. Phase 2 Clinical (dry granulated (DG)) tablet 2×200 mg.
2. Wet granulated (WG) Vitamin E TPGS/poloxamer tablet: 50% w/w Compound I+4.67% w/w Vitamin E TPGS+4% w/w poloxamer+14.33% w/w microcrystalline cellulose+15% lactose monohydrate+11.5% w/w croscarmellose sodium+0.5% w/w magnesium stearate; 2×200 mg (Corresponds to the formulation shown above in Table 1).
3. WG poloxamer tablet: 50% w/w Compound I+2% w/w polyvinyl pyrrolidone+4% w/w poloxamer+16% microcrystalline cellulose+16% w/w lactose monohydrate+11.5% w/w croscarmellose sodium+0.5% w/w magnesium stearate; 2×200 mg (Corresponds to the formulation shown above in Table 5).
4. Amorphous API tablet: 50% w/w Compound I+41.25% w/w microcrystalline cellulose+5% w/w croscarmellose sodium+2% w/w silicon dioxide+1% w/w sodium lauryl sulphate+0.75% w/w magnesium stearate; 2×200 mg.
5. Solution Formulation: Polyethylene glycol 400:EtOH: polysorbate 80 (50:35:15), 20 mg/mL.
The protocol used was as follows:
[…] For food-effect studies in the fed state, dogs were given 50 ml high-fat meal substitute instead of water.

Take `C=C[C@@H]1C[C@]1(NC(=O)[C@@H]1C[C@@H](Oc2ncc(OC)c3ccc(Cl)cc23)CN1C(=O)[C@@H](NC(=O)OC(C)(C)C)C(C)(C)C)C(=O)NS(=O)(=O)C1CC1` [Compound I, 1,1-dimethylethyl[(1S)-1-{[(2S,4R)-4-(7-chloro-4methoxyisoquinolin-1-yloxy)-2-({(1R,2S)-1-[(cyclopropylsulfonyl)carbamoyl]-2-ethenylcyclopropyl}carbamoyl)pyrrolidin-1-yl]carbonyl}-2,2-dimethylpropyl]carbamate]: the food effect result is “significant positive food effect”.
